Measurements taken from US5604253A, “N-benzylindol-3-yl propanoic acid derivatives as cyclooxygenase inhibitors” (priority 1995, dated 1997).
Read-outs that look alike come from different tables or passages of the source.

Key:
[1] = target: cyclooxygenase-1 (Homo sapiens, UniProt P23219); experiment: cell-based; conditions: PGE2 production, human U-937 cells, 10 μM arachidonic acid; read-out: Cox-1 IC50
Experimental: (§1) Compounds were tested as inhibitors of cyclooxygenase activity in whole cell cyclooxygenase assays. Both of these assays measured prostaglandin E2 synthesis in response to arachidonic acid, using a radioimmunoassay. Cells used for these assays were human osteosarcoma 143 cells (which specifically express cyclooxygenase-2) and human U-937 cells (which specifically express cyclooxygenase-1). In these assays, 100% activity is defined as the difference between prostaglandin E2 synthesis in the absence and presence of arachidonate addition.
(§2) For cyclooxygenase assays, osteosarcoma cells are cultured in 1 mL of media in 24-well multidishes (Nunclon) until confluent (1-2×10^5 cells/well). U-937 cells are grown in spinner flasks and resuspended to a final density of 1.5×10^6 cells/mL in 24-well multidishes (Nunclon). Following washing and resuspension of osteosarcoma and U-937 cells in 1 mL of Hanks balanced salts solution (HBSS), 2 μL of a DMSO solution of test compound or DMSO vehicle is added, and samples gently mixed. All assays are performed in triplicate. Samples are then incubated for 5 or 15 minutes at 37° C., prior to the addition of arachidonic acid. Arachidonic acid (peroxide-free, Cayman Chemical) is prepared as a 10 mM stock solution in ethanol and further diluted 10-fold in HBSS. An aliquot of 10 μL of this diluted solution is added to the cells to give a final arachidonic acid concentration of 10 μM. Control samples are incubated with ethanol vehicle instead of arachidonic acid. Samples are again gently mixed and incubated for a further 10 min at 37° C. For osteosarcoma cells, reactions are then stopped by the addition of 100 μL of 1N HCl, with mixing and by the rapid removal of the solution from cell monolayers. For U-937 cells, reactions are stopped by the addition of 100 μL of 1N HCl, with mixing. Samples are then neutralized by the addition of 100 μL of 1N NaOH and PGE2 levels measured by radioimmunoassay.
(§3) In the assay, inhibition is determined by measuring the amount of prostaglandin E2 (PGE2) synthesized in the presence of arachidonic acid, cyclooxygenase-1 or cyclooxygenase-2 and a putative inhibitor.

[2] = target: T1, cyclooxygenase-2 (Homo sapiens, UniProt P35354); experiment: cell-based; conditions: PGE2 production, human osteosarcoma 143 cells, 10 μM arachidonic acid; read-out: Cox-2 IC50
T1 sequence (P35354 18-604): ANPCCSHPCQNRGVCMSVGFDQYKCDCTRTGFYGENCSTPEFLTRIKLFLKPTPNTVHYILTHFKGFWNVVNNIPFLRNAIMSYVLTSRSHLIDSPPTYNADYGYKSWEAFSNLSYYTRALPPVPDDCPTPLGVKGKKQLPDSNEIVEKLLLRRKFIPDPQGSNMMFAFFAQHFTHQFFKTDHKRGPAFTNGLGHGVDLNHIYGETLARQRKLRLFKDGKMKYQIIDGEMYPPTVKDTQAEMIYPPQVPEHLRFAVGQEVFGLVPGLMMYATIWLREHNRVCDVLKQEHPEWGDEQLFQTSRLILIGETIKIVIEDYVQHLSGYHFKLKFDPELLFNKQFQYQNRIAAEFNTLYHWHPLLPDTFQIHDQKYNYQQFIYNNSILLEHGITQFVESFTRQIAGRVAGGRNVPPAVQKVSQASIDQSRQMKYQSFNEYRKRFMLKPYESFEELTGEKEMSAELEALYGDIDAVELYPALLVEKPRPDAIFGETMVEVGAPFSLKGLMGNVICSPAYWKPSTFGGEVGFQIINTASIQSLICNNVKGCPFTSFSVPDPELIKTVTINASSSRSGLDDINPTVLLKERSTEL
Experimental: as §1, §2, §3

[3] = tested on: Rat Paw Edema; experiment: Rat paw edema assay (carrageenan); type: in vivo, Sprague-Dawley rat
Experimental: Male Sprague-Dawley rats (150-200 g) are fasted overnight and are given po either vehicle (1% methocel or 5% Tween 80) or a test compound. One hr later, a line is drawn using a permanent marker at the level above the ankle in one hind paw to define the area of the paw to be monitored. The paw volume (V0) is measured using a plethysmometer (Ugo-Basile, Italy) based on the principle of water displacement. The animals are then injected subplantarly with 50 μl of 1% carrageenan solution in saline (FMC Corp, Maine) into the paw using an insulin syringe with a 25-gauge needle (i.e., 500 μg carrageenan per paw). Three hr later, the paw volume (V3) is measured and the increases in paw volume (V3 -V0) are calculated. The animals are sacrificed by CO2 asphyxiation and the absence or presence of stomach lesions scored. Data is compared with the vehicle-control values and percent inhibition calculated. All treatment groups are coded to eliminate observer bias.

[4] = edema inhibition, rat, po 1 hr before carrageenan, paw volume at 3 hr, read-out: ED30

Chain of cyclooxygenase-1 (P23219 24-599): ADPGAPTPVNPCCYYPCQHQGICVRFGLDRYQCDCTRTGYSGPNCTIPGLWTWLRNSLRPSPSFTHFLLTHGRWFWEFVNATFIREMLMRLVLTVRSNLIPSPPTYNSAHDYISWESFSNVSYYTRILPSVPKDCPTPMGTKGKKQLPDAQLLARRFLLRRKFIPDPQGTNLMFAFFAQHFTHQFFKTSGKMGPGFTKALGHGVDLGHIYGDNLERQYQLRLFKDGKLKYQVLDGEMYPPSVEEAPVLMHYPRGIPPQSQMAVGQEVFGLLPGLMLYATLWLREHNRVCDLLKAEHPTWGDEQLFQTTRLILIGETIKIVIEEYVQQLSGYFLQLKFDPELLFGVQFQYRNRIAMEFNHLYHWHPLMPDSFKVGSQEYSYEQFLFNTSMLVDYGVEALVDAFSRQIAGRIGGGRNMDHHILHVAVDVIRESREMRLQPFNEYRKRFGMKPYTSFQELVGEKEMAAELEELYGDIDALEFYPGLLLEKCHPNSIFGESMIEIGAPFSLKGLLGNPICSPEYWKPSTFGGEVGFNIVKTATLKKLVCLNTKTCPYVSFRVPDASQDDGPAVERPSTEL

COc1ccc2c(c1)c([C@@H]1C[C@H]1C(=O)[O-])c(C)n2Cc1ccc(Br)cc1.[Na+] (relative stereo) [sodium salt]
IC50 [1]: > 10000 nM
IC50 [2]: 46 nM

COc1ccc2c(c1)c([C@@H]1C[C@H]1C(=O)[O-])c(C)n2Cc1ccc(Br)cc1.[Na+] (relative stereo)
ED30 ([3]; Rattus norvegicus, po, 3 h): 0.6 mg/kg

COc1ccc2c(c1)c(CC(=O)O)c(C)n2C(=O)c1ccc(Cl)cc1 [Indomethacin, reference compound]
ED30 [3, 4]: 0.9 mg/kg

COc1ccc2c(c1)c(C(C)C(=O)O)c(C)n2Cc1ccc(Cl)cc1 (stereo not drawn) [MK-555, α-(1-p-chlorobenzyl-2-methyl-5-methoxy-3-indolyl)propionic acid, reference compound]
ED30 [3, 4]: 3 mg/kg

COc1ccc2c(c1)c(C(C)CC(=O)[O-])c(C)n2Cc1ccc(Br)cc1.[Na+] (racemic)
ED30 ([3]; Rattus norvegicus, po, 3 h): 0.7 mg/kg

COc1ccc2c(c1)c(C(C)CC(=O)[O-])c(C)n2Cc1ccc(Br)cc1.[Na+] (racemic) [sodium salt]
IC50 [1]: > 10000 nM
IC50 [2]: 4 nM
